The structures appear in SMILES notation. Where two headings read alike, the source gives them in different places.

The term Kd denotes a measure of binding affinity in units of concentration. The IC50 is the concentration that inhibits the measured activity by half.

In one assay the target is T1, BAX-4C (Homo sapiens, UniProt Q07812, C126S/C62S/S4C).
T1 construct: Human full-length (1-192) wild-type BAX (Q07812); made in house; host or cells: E. coli BL21 (DE3) CodonPlus (DE3)-RIPL
In words: Microscale thermophoresis (MST) direct binding. Conditions: 50 nM labeled BAX; read-out: dissociation constant KD. As for the experimental part:
Recombinant BAX C62S-C126S-S5C (4C), previously established for evaluating BAX (Garner, T.P., et al. Nat Chem Biol 15, 322-330 (2019)) binding compounds with MST, or BAX C62S-C126S-S5C-R134E-R145E (R134E-R145E-4C) was labeled at cysteine using the Monolith Protein Labeling Kit Red Maleimide (NanoTemper Technologies) according to the instructions of the manufacturer (Garner, T.P., et al. Nat Chem Biol 15, 322-330 (2019)). Briefly, 10 µM protein was incubated with 0.9 equivalents of dye in MST buffer (100 mM potassium phosphate, pH 7.4, 150 mM NaCI) in the dark at room temperature (22-25° C.) for 1 hr. […] Samples were loaded into standard glass capillaries (Monolith NT.155 Capillaries) and analyzed by MST using a Monolith NT.115 Blue/Red, LED power and IR laser power of 80%. Fraction bound and error was generated by NanoTemper software (MO.Affinity Analysis), and KD values were determined using GraphPad Prism nonlinear fit four-parameter agonist versus response with restraints for 0 and 1 fraction bound.
To test this hypothesis, a competitive fluorescence polarization assay (FPA) (Gavathiotis, E., et al. Nat Chem Biol 8, 639-645 (2012)) based on the interaction between BAX and fluorescently-labeled stapled BIM-BH3 peptide (FITC-BIM-SAHB) was used (Gavathiotis, E., et al. Nature 455, 1076-1081 (2008)). […]
A general note: Microscale thermophoresis detects binding through changes in fluorescence in a small temperature gradient.

The target in assay [1] is T2, BAX (Homo sapiens, UniProt Q07812).
T2 construct: Human full-length (1-192) wild-type BAX (Q07812); made in house; host or cells: E. coli BL21 (DE3) CodonPlus (DE3)-RIPL
The assay can be described thus: Liposomal translocation assay with NBD-labeled BAX. Type of assay: biochemical. Conditions: for IC50: NBD-labeled BAX 800 nM, 120 minutes. As to the method:
Lipids (Avanti Polar Lipids) at the following ratio, phosphatidylcholine 48%, phosphatidylinositol 10%, dioleoyl phosphatidylserine 10%, phosphatidylethanolamine, 28%, and tetraoleoyl cardiolipin 4%, were mixed in a total of 1 mg, dried and resuspended in 10 mM HEPES, pH 7, 200 mM KCl, and 5 mM MgCl2. The resulting slurry was vortexed for 10 minutes and sonicated in a sonicating water bath for 10 minutes. Liposomes were formed by extrusion of the suspension using Avanti Mini-Extruder with polycarbonate membranes of 0.1 µm pore size (Avanti Polar Lipids) followed by passage through a CL2B Sepharose column (GE Healthcare). Recombinant wild type BAX was labeled at cysteine by overnight incubation at 4° C. with 10 equivalents of iodoamino-NBD (IANBD, Thermo Fisher) and 3 equivalents of TCEP to maintain reduced cysteine. Labeled BAX (BAX-NBD) was separated from unreacted IANBD by gel filtration (Econo-Pac 10 DG desalting column, BioRad) and used immediately. […] Upon BAX-NBD translocation, the NBD fluorophore was excluded from bulk water through contact with the liposomal membrane leading to an increase in fluorescence intensity. Fluorescence (λex = 475 nm and λem = 530 nm) was measured at 1-minute intervals at 37° C. indicated using a Tecan Infinite M1000 plate reader. The percentage translocation at any given time point was calculated as percentage translocation=[((F-F0)/(F100-F0))(100)]-[((FS-FS0)/(FS100-FS0))(100)] where F0 and F100 are baseline and maximal fluorescence, respectively and FS, FS0, and FS100 are the current fluorescence, baseline fluorescence, maximal fluorescence of solution BAX incubated in the absence of liposomes. The subtraction of the percent translocation of solution BAX is required to correct for NBD fluorescence bleaching that occurs throughout the reaction. […]
(§1) Prior to permeabilizing membranes, activated BAX must first translocate to the membrane (Lovell, J. F. et al. Cell 135, 1074-1084, (2008)). To explore this earlier step in BAX activation, an NBD-fluorescence-based translocation assay was used. […]

For assay [2], the target named is T2, BAX. The assay can be described thus: BAX conformation change assay using anti-6A7 immunoprecipitation. Conditions: BAX 10 µM, 4 equivalents BIM-BH3, 5 or 10 equivalents EO. Type of assay: biochemical. As for the experimental part:
Exposure of the 6A7 epitope of BAX was assessed by immunoprecipitation with a 6A7-domain-specific antibody purchased from Santa Cruz (SC-23959). Protein G beads (50 µL, Santa Cruz) were washed three times with 3% BSA in PBS and incubated with 15 µL 6A7 antibody at 4° C. for 1 hr. Recombinant full-length BAX (10 µM) was incubated with 4 equivalents of BIM-BH3 peptide alone and in the presence of 5 or 10 equivalents of EO for 15 min at room temperature. Incubation of full-length recombinant BAX with 0.1% Triton X served as a positive control for exposure of the 6A7 epitope. After incubation, 10 µL of each reaction was transferred to the protein G beads pre-loaded with the anti-6A7 antibody, and 1 µL was reserved as a loading control. After 90 minutes of incubation at 4° C. beads were collected and washed three times with […] of 3% BSA in PBS and solubilized with 25 µL LDS/DTT loading buffer. Samples were resolved by SDS-PAGE electrophoresis and western blot analysis with an anti-BAX yth-2D2 antibody (Invitrogen).
as §1

T2 sequence (Q07812 whole entry): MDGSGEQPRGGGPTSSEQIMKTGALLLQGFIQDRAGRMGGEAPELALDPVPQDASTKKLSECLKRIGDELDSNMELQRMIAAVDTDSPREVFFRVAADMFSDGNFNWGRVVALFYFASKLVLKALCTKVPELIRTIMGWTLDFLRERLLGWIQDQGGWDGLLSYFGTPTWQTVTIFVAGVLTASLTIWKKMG
T1 sequence (Q07812 whole entry S4C/C62S/C126S): as the sequence (Q07812 whole entry) above, with S4C, C62S, C126S counted along it

For `CC1=NN(c2ccc(C)c(C)c2)C(=O)/C1=N\Nc1cccc(-c2cccc(C(=O)O)c2)c1O` [EO, eltrombopag], the Kd at BAX-4C came out at 0.143 µM. The concentration for half-maximal inhibition (IC50) on BAX [1] (BIM BH3 1 µM, read-out: BIM IC50, inhibition of BAX translocation) was found to be 5.7 µM; on BAX [1] (tBID 200 nM, read-out: tBID IC50, inhibition of BAX translocation) it was 6.3 µM. In addition, the “heat-induced auto-translocation of BAX” value at BAX [1] (heat-induced, no BH3 activator) is given as “capable of inhibiting heat-induced auto-translocation of BAX”. Further, on BAX [2], the “BIM-BH3 induced 6A7 epitope exposure” value was “inhibited”.
